PubChem BioAssay AID1918953 (Molecular Pharmacology Branch, DTP, NCI, 2023)

Test system: MDA-MB-231 complex spheroid viability
Test: Anticancer human tumor MDA-MB-231/ATCC cell line growth inhibition;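 note: drug exposure lasted 7 days starting on day 3 of spheroid growth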
Conditions: for IC50: curve of first compound; for viability, T/C: stronger effect = lower value
Outline: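 Complex spheroids of tumor cells with HUVEC and human MSCs, exposed to iadademstat combined with other agents. Each agent tested in half-log steps from near clinical Cmax (else 10 microM top), DMSO ≤0.25%.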

[1] = second compound 0.1 µM, first compound 0.0316 µM
[2] = second compound 0.1 µM, first compound 0.1 µM
[3] = second compound 0.1 µM, first compound 0.316 µM
[4] = second compound 0.1 µM, first compound 1 µM
[5] = second compound 0.1 µM, first compound 3.16 µM
[6] = second compound 0.1 µM, first compound 10 µM
[7] = second compound 0.316 µM, first compound 0.0316 µM
[8] = second compound 0.316 µM, first compound 0.1 µM
[9] = second compound 0.316 µM, first compound 0.316 µM
[10] = second compound 0.316 µM, first compound 1 µM
[11] = second compound 0.316 µM, first compound 3.16 µM
[12] = second compound 0.316 µM, first compound 10 µM
[13] = second compound 1 µM, first compound 0.0316 µM
[14] = second compound 1 µM, first compound 0.1 µM
[15] = second compound 1 µM, first compound 0.316 µM
[16] = second compound 1 µM, first compound 1 µM
[17] = second compound 1 µM, first compound 3.16 µM
[18] = second compound 1 µM, first compound 10 µM
[19] = second compound 3.16 µM, first compound 0.0316 µM
[20] = second compound 3.16 µM, first compound 0.1 µM
[21] = second compound 3.16 µM, first compound 0.316 µM
[22] = second compound 3.16 µM, first compound 1 µM
[23] = second compound 3.16 µM, first compound 3.16 µM
[24] = second compound 3.16 µM, first compound 10 µM
[25] = second compound 10 µM, first compound 0.0316 µM
[26] = second compound 10 µM, first compound 0.1 µM
[27] = second compound 10 µM, first compound 0.316 µM
[28] = second compound 10 µM, first compound 1 µM
[29] = second compound 10 µM, first compound 3.16 µM
[30] = second compound 10 µM, first compound 10 µM

Row | Compound | IC50 (second compound 0.1 µM) [µM] | IC50 (second compound 0.316 µM) [µM] | IC50 (second compound 1 µM) [µM] | IC50 (second compound 3.16 µM) [µM] | IC50 (second compound 10 µM) [µM] | viability, T/C [1] [%] | viability, T/C [2] [%] | viability, T/C [3] [%] | viability, T/C [4] [%] | viability, T/C [7] [%] | viability, T/C [8] [%] | viability, T/C [9] [%] | viability, T/C [10] [%] | viability, T/C [13] [%] | viability, T/C [14] [%] | viability, T/C [15] [%] | viability, T/C [16] [%] | viability, T/C [19] [%] | viability, T/C [20] [%] | viability, T/C [21] [%] | further results
1 | CC(C)c1c(-c2ccccc2)nc2c(C#N)c[nH]n2c1=O + NC1CCC(NC2CC2c2ccccc2)CC1 | > 10 | > 10 | > 10 | > 10 | > 10 | 108 | 108 | 101 | 102 | 109 | 106 | 106 | 111 | 101 | 100 | 102 | 109 | 86.6 | 90.4 | 87.6 | viability, T/C [5]: 105%; viability, T/C [6]: 103%; viability, T/C [11]: 110%; viability, T/C [12]: 104%; viability, T/C [17]: 106%; viability, T/C [18]: 103%; viability, T/C [22]: 88.5%; viability, T/C [23]: 94.2%; viability, T/C [24]: 87.3%; viability, T/C [25]: 64.5%; viability, T/C [26]: 69.2%; viability, T/C [27]: 70.2%; viability, T/C [28]: 73.7%; viability, T/C [29]: 71.1%; viability, T/C [30]: 66.5%
2 | CC1COCCN1c1cc(-c2ccnn2C)c2ccnc(-c3ccn[nH]3)c2n1 (stereo not given) + NC1CCC(NC2CC2c2ccccc2)CC1 | 0.0311 | 0.0343 | 0.0257 | 0.0165 | 0.0107 | 50.4 | 33.3 | 28.4 | 28.8 | 50.7 | 37.4 | 29.3 | 28.9 | 45.8 | 34.5 | 27.4 | 30.7 | 40.2 | 33 | 29.3 | viability, T/C (second compound 0.1 µM, first compound 0.00316 µM): 102%; viability, T/C (second compound 0.1 µM, first compound 0.01 µM): 77.8%; viability, T/C (second compound 0.316 µM, first compound 0.00316 µM): 93.7%; viability, T/C (second compound 0.316 µM, first compound 0.01 µM): 73.8%; viability, T/C (second compound 1 µM, first compound 0.00316 µM): 90%; viability, T/C (second compound 1 µM, first compound 0.01 µM): 69.4%; viability, T/C (second compound 3.16 µM, first compound 0.00316 µM): 72.8%; viability, T/C (second compound 3.16 µM, first compound 0.01 µM): 57.4%; viability, T/C [22]: 30.7%; viability, T/C (second compound 10 µM, first compound 0.00316 µM): 56.9%; viability, T/C (second compound 10 µM, first compound 0.01 µM): 51%; viability, T/C [25]: 32.8%; viability, T/C [26]: 30%; viability, T/C [27]: 28%; viability, T/C [28]: 28.9%
3 | COc1ccc([C@@H](O)c2cc(-c3ncnc4cc(N5CCOCC5)ccc34)c(F)cc2Cl)nn1 + NC1CCC(NC2CC2c2ccccc2)CC1 | 0.483 | 0.555 | 0.669 | 0.505 | 0.28 | 89.3 | 75.7 | 55.6 | 40.3 | 91.5 | 79.3 | 59.1 | 41.2 | 96.6 | 79.8 | 65.7 | 41.9 | 74.2 | 72.1 | 54.2 | viability, T/C [5]: 27.9%; viability, T/C [6]: 24.6%; viability, T/C [11]: 27.6%; viability, T/C [12]: 26%; viability, T/C [17]: 28.9%; viability, T/C [18]: 23.8%; viability, T/C [22]: 42.3%; viability, T/C [23]: 27.2%; viability, T/C [24]: 24.4%; viability, T/C [25]: 62.8%; viability, T/C [26]: 61%; viability, T/C [27]: 47.5%; viability, T/C [28]: 36.5%; viability, T/C [29]: 28%; viability, T/C [30]: 24.3%
